For four compounds, IC50 and viability, T/C results are on record in PubChem BioAssay AID2060340 (Molecular Pharmacology Branch, DTP, NCI, 2025).

The structures appear in SMILES notation. “And” between values parts separate entries of the source, which are not always exact repeats. Equal values may be shown once.

This assay concerns 349418-098-R-PDC spheroids, viability, % test/control. The assay can be described thus: Anticancer human tumor 349418-098-R-PDC patient-derived lung adenocarcinoma cell line growth inhibition [IpAb]. The settings on record: spheroids with HUVEC and MSC; for viability, T/C: stronger effect = lower value. The essentials:
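Multi-cell spheroids of 60% tumour cells, 25% HUVEC and 15% MSC in ultra-low-attachment U-bottom wells, treated with agents combined with ipatasertib or abemaciclib. Half-log ranges top out near clinical Cmax, or 10 microM when Cmax is unknown.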

Where [1] appears, read: curve of first compound, second compound 0.01 µM.
Setting [2] is: curve of first compound, second compound 0.0316 µM.
Where [3] appears, read: curve of first compound, second compound 0.1 µM.
Where [4] appears, read: curve of first compound, second compound 0.316 µM.
Setting [5] is: curve of first compound, second compound 1 µM.
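Further: spheroids exposed to compounds for 7 days.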

A word on the IC50: it is the concentration at which inhibition is half-maximal. By viability, T/C is commonly meant the ratio of treated to control. With `Cn1nccc1Nc1nccc(-c2ccn(C(CO)c3ccc(Cl)c(F)c3)c(=O)c2)n1` (centres undefined) + CCN1CCN(Cc2ccc(Nc3ncc(F)c(-c4cc(F)c5nc(C)n(C(C)C)c5c4)n3)nc2)CC1, the IC50 runs as follows: under setting [1], less than 31.6 nM; under setting [2], less than 31.6 nM; under setting [3], less than 31.6 nM; under setting [4], less than 31.6 nM; under setting [5], less than 31.6 nM. For the same compound, the viability, T/C by setting is: (second compound 0.01 µM, first compound 0.0316 µM) 34.3%; (second compound 0.01 µM, first compound 0.1 µM) 31.1%; (second compound 0.01 µM, first compound 0.316 µM) 28.1%; (second compound 0.01 µM, first compound 1 µM) 27.3%; (second compound 0.01 µM, first compound 3.16 µM) 23.5%; (second compound 0.01 µM, first compound 10 µM) 19.9%. Also, the viability, T/C is, setting by setting: (second compound 0.0316 µM, first compound 0.0316 µM) 21.5%; (second compound 0.0316 µM, first compound 0.1 µM) 23%; (second compound 0.0316 µM, first compound 0.316 µM) 18.6%; (second compound 0.0316 µM, first compound 1 µM) 18%; (second compound 0.0316 µM, first compound 3.16 µM) 17.1%; (second compound 0.0316 µM, first compound 10 µM) 16.3%. Moreover, the viability, T/C by setting is: (second compound 0.1 µM, first compound 0.0316 µM) 13.1%; (second compound 0.1 µM, first compound 0.1 µM) 13.4%; (second compound 0.1 µM, first compound 0.316 µM) 13.2%; (second compound 0.1 µM, first compound 1 µM) 12.7%; (second compound 0.1 µM, first compound 3.16 µM) 13.3%; (second compound 0.1 µM, first compound 10 µM) 13.5%. The viability, T/C runs as follows: (second compound 0.316 µM, first compound 0.0316 µM) 11.6%; (second compound 0.316 µM, first compound 0.1 µM) 11.1%; (second compound 0.316 µM, first compound 0.316 µM) 11.2%; (second compound 0.316 µM, first compound 1 µM) 10.8%; (second compound 0.316 µM, first compound 3.16 µM) 13%; (second compound 0.316 µM, first compound 10 µM) 13.2%. Moreover, the viability, T/C reads like this: (second compound 1 µM, first compound 0.0316 µM) 12.7%; (second compound 1 µM, first compound 0.1 µM) 10.4%; (second compound 1 µM, first compound 0.316 µM) 11.1%; (second compound 1 µM, first compound 1 µM) 11.7%; (second compound 1 µM, first compound 3.16 µM) 12.5%; (second compound 1 µM, first compound 10 µM) 12.2%.

As to `CC(=O)c1c(C)c2cnc(Nc3ccc(N4CCNCC4)cn3)nc2n(C2CCCC2)c1=O`, the viability, T/C is, setting by setting: (compound 0.000949 µM) 97.3% and 86.4%; (compound 0.003 µM) 82.9% and 78.7%; (compound 0.00949 µM) 61.7%; (compound 0.03 µM) 30.8% and 42.2%; (compound 0.0949 µM) 24.5% and 21.1%; (compound 0.3 µM) 16.8% and 16.9%. For the same compound, where the note is “curve of compound”, the IC50 is 14.4 nM and 18.2 nM.

As for `Cn1cnc2c(F)c(Nc3ccc(Br)cc3Cl)c(C(=O)NOCCO)cc21` + CCN1CCN(Cc2ccc(Nc3ncc(F)c(-c4cc(F)c5nc(C)n(C(C)C)c5c4)n3)nc2)CC1, the half-maximal inhibitory concentration (IC50) is less than 9.49 nM under setting [1]; less than 9.49 nM under setting [2]; less than 9.49 nM under setting [3]; less than 9.49 nM under setting [4]; less than 9.49 nM under setting [5]. In addition, the viability, T/C is, setting by setting: (second compound 0.01 µM, first compound 0.00949 µM) 41.1%; (second compound 0.01 µM, first compound 0.03 µM) 33.9%; (second compound 0.01 µM, first compound 0.0949 µM) 27.2%; (second compound 0.01 µM, first compound 0.3 µM) 28.7%; (second compound 0.01 µM, first compound 0.949 µM) 17.3%; (second compound 0.01 µM, first compound 3 µM) 8.8%. The viability, T/C was 26.7% (second compound 0.0316 µM, first compound 0.00949 µM); 21.7% (second compound 0.0316 µM, first compound 0.03 µM); 18.9% (second compound 0.0316 µM, first compound 0.0949 µM); 17.9% (second compound 0.0316 µM, first compound 0.3 µM); 12.1% (second compound 0.0316 µM, first compound 0.949 µM); 7.93% (second compound 0.0316 µM, first compound 3 µM). Besides, the viability, T/C by setting is: (second compound 0.1 µM, first compound 0.00949 µM) 15.1%; (second compound 0.1 µM, first compound 0.03 µM) 14.7%; (second compound 0.1 µM, first compound 0.0949 µM) 12%; (second compound 0.1 µM, first compound 0.3 µM) 11.2%; (second compound 0.1 µM, first compound 0.949 µM) 9.1%; (second compound 0.1 µM, first compound 3 µM) 6.69%. The viability, T/C is, setting by setting: (second compound 0.316 µM, first compound 0.00949 µM) 12.1%; (second compound 0.316 µM, first compound 0.03 µM) 11.2%; (second compound 0.316 µM, first compound 0.0949 µM) 10.1%; (second compound 0.316 µM, first compound 0.3 µM) 9.23%; (second compound 0.316 µM, first compound 0.949 µM) 8.49%; (second compound 0.316 µM, first compound 3 µM) 7.04%. Moreover, the viability, T/C (second compound 1 µM, first compound 0.00949 µM) is 9.97%; the viability, T/C (second compound 1 µM, first compound 0.03 µM) was 10.1%; the viability, T/C (second compound 1 µM, first compound 0.0949 µM) was 10.6%; the viability, T/C (second compound 1 µM, first compound 0.3 µM) is 8.23%; the viability, T/C (second compound 1 µM, first compound 0.949 µM) is 8.1%; the viability, T/C (second compound 1 µM, first compound 3 µM) is 6.68%.

As to `CC(C)n1nc(-c2ccc3oc(N)nc3c2)c2c(N)ncnc21`, the viability, T/C was 93.8% and 89.8% (compound 0.000316 µM); 72.9% and 60.3% (compound 0.001 µM); 24.7% and 26.2% (compound 0.00316 µM); 11% and 10.4% (compound 0.01 µM); 8.02% and 7.35% (compound 0.0316 µM); 7.57% and 6.78% (compound 0.1 µM). In addition, the IC50 (curve of compound) was 1.73 nM and 1.42 nM.
